In patent publication US8889667B2 (Agios Pharmaceuticals, Inc, priority 2010, dated 2014):

These compounds were tested against PKM2 (Homo sapiens, UniProt P14618) (assay: PKM2 Assay (activation, LDH-coupled, absorbance at 340 nm)). Conditions: Table 4.
Type: biochemical
How it was run: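 Read-out was the 340 nm NADH absorbance change at 25 °C in an LDH-coupled system (PEP 0.15 mM, NADH 180 μM, ADP 0.7 mM to initiate) in 50 mM Tris pH 7.5, 100 mM KCl, 5 mM MgCl2. PKM2 at 50 ng/well was first preincubated with compound for 30 min at 4 °C. Activation given as AC50.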

PKM2, sequence (P14618 whole entry): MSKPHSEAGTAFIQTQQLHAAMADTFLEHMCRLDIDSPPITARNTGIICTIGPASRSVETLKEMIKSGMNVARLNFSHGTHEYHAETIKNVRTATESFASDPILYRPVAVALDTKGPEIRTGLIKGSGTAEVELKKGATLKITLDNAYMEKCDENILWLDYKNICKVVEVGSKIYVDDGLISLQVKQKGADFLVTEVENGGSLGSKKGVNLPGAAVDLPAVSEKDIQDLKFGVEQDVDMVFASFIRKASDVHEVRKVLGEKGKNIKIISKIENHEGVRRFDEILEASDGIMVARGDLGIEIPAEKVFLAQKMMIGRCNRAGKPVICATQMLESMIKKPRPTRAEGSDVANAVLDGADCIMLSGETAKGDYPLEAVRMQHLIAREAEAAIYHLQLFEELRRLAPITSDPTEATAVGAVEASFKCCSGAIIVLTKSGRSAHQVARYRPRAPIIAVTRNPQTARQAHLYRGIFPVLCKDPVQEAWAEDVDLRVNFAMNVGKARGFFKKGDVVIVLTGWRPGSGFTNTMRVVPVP

| AC50 [nM] | SMILES |
| --- | --- |
| < 100 | CC1CN(Cc2cc(F)cc(F)c2)CC(C)N1C(=O)c1ccc(NS(=O)(=O)c2cccc3cccnc23)cc1 (stereo not drawn) [Compound 194, N-(4-(4-(3,5-difluorobenzyl)-2,6-dimethylpiperazine-1-carbonyl)phenyl)quinoline-8-sulfonamide] |
| < 100 | CC1CN(Cc2ccc(F)cc2)CC(C)N1C(=O)c1ccc(NS(=O)(=O)c2cccc3cccnc23)cc1 (stereo not drawn) [Compound 196, N-(4-(4-(4-fluorobenzyl)-2,6-dimethylpiperazine-1-carbonyl)phenyl)quinoline-8-sulfonamide] |
| 100 to 500 | CC1CN(Cc2ccc(Cl)c(F)c2)CC(C)N1C(=O)c1ccc(NS(=O)(=O)c2cccc3cccnc23)cc1 (stereo not drawn) [Compound 197, N-(4-(4-(4-chloro-3-fluorobenzyl)-2,6-dimethylpiperazine-1-carbonyl)phenyl)quinoline-8-sulfonamide] |
| < 100 | CC1CN(Cc2c(F)ccc(F)c2F)CC(C)N1C(=O)c1ccc(NS(=O)(=O)c2cccc3cccnc23)cc1 (stereo not drawn) [Compound 199, N-(4-(2,6-dimethyl-4-(2,3,6-trifluorobenzyl)piperazine-1-carbonyl)phenyl)quinoline-8-sulfonamide] |
| < 100 | CC1CN(Cc2cc(F)cc(F)c2F)CC(C)N1C(=O)c1ccc(NS(=O)(=O)c2cccc3cccnc23)cc1 (stereo not drawn) [Compound 200, N-(4-(2,6-dimethyl-4-(2,3,5-trifluorobenzyl)piperazine-1-carbonyl)phenyl)quinoline-8-sulfonamide] |
| 100 to 500 | CC1CN(Cc2cc(F)c(F)c(F)c2)CC(C)N1C(=O)c1ccc(NS(=O)(=O)c2cccc3cccnc23)cc1 (stereo not drawn) [Compound 201, N-(4-(2,6-dimethyl-4-(3,4,5-trifluorobenzyl)piperazine-1-carbonyl)phenyl)quinoline-8-sulfonamide] |
| 100 to 500 | CC1CN(Cc2c(F)cc(F)cc2F)CC(C)N1C(=O)c1ccc(NS(=O)(=O)c2cccc3cccnc23)cc1 (stereo not drawn) [Compound 202, N-(4-(2,6-dimethyl-4-(2,4,6-trifluorobenzyl)piperazine-1-carbonyl)phenyl)quinoline-8-sulfonamide] |
| < 100 | CC1CN(Cc2cc(F)c(F)cc2F)CC(C)N1C(=O)c1ccc(NS(=O)(=O)c2cccc3cccnc23)cc1 (stereo not drawn) [Compound 203, N-(4-(2,6-dimethyl-4-(2,4,5-trifluorobenzyl)piperazine-1-carbonyl)phenyl)quinoline-8-sulfonamide] |
| 500 to 1000 | CC1CN(CC2CCOC2)CC(C)N1C(=O)c1ccc(NS(=O)(=O)c2cccc3cccnc23)cc1 (stereo not drawn) [Compound 204, N-(4-(2,6-dimethyl-4-((tetrahydrofuran-3-yl)methyl)piperazine-1-carbonyl)phenyl)quinoline-8-sulfonamide] |
| < 100 | C[C@@H]1CN(CC2CCC2)CCN1C(=O)c1ccc(NS(=O)(=O)c2cccc3cccnc23)cc1 [Compound 206, (R)—N-(4-(4-(cyclobutylmethyl)-2-methylpiperazine-1-carbonyl)phenyl)quinoline-8-sulfonamide] |
| 100 to 500 | C[C@H]1CN(CC2CCC2)CCN1C(=O)c1ccc(NS(=O)(=O)c2cccc3cccnc23)cc1 [Compound 207, (S)—N-(4-(4-(cyclobutylmethyl)-2-methylpiperazine-1-carbonyl)phenyl)quinoline-8-sulfonamide] |
| < 100 | O=C(c1ccc(NS(=O)(=O)c2cccc3cccnc23)cc1)N1C2CCC1CN(Cc1ccccc1)C2 [Compound 213] |
| 100 to 500 | O=C1CN(C(=O)c2ccc(NS(=O)(=O)c3cccc4cccnc34)cc2)CCN1CC1CC1 [Compound 214] |
| < 100 | O=C1CN(C(=O)c2ccc(NS(=O)(=O)c3cccc4cccnc34)cc2)CCN1Cc1cc(F)cc(F)c1 [Compound 216, N-(4-(4-(3,5-difluorobenzyl)-3-oxopiperazine-1-carbonyl)phenyl)quinoline-8-sulfonamide] |
| 100 to 500 | O=C(c1ccc(NS(=O)(=O)c2cccc3cccnc23)cc1)N1CC2CCC(C1)N2Cc1cc(F)cc(F)c1 [Compound 218, N-(4-(8-(3,5-difluorobenzyl)-3,8-diazabicyclo[3.2.1]octane-3-carbonyl)phenyl)quinoline-8-sulfonamide] |
| 100 to 500 | O=C(c1ccc(NS(=O)(=O)c2cccc3cccnc23)cc1)N1CC2CCC(C1)N2Cc1ccc(F)cc1 [Compound 219, N-(4-(8-(4-fluorobenzyl)-3,8-diazabicyclo[3.2.1]octane-3-carbonyl)phenyl)quinoline-8-sulfonamide] |
| < 100 | O=C(c1ccc(NS(=O)(=O)c2cccc3cccnc23)cc1)N1CC2CCC(C1)N2CC1CC1 [Compound 221, N-(4-(8-(cyclopropylmethyl)-3,8-diazabicyclo[3.2.1]octane-3-carbonyl)phenyl)quinoline-8-sulfonamide] |
| < 100 | COc1ccccc1N1C[C@@H](C)N(C(=O)c2ccc(NS(=O)(=O)c3cccc4cccnc34)cc2)[C@@H](C)C1 [Compound 222, N-(4-((2R,6S)-4-(2-methoxyphenyl)-2,6-dimethylpiperazine-1-carbonyl)phenyl)quinoline-8-sulfonamide] |
| < 100 | COc1ccccc1N1CCN(C(=O)c2ccc(NS(=O)(=O)c3cccc4cccnc34)cc2)C(C)C1 (stereo not drawn) [Compound 223, N-(4-(4-(2-methoxyphenyl)-2-methylpiperazine-1-carbonyl)phenyl)quinoline-8-sulfonamide] |
| < 100 | O=C(c1ccc(NS(=O)(=O)c2cccc3cccnc23)cc1)N1C2CCC1CN(Cc1ccc(F)cc1)C2 [Compound 226, N-(4-(3-(4-fluorobenzyl)-3,8-diazabicyclo[3.2.1]octane-8-carbonyl)phenyl)quinoline-8-sulfonamide] |
| 100 to 500 | O=C(c1ccc(NS(=O)(=O)c2cccc3cccnc23)cc1)N1C2CCC1CN(Cc1cc(F)cc(F)c1)C2 [Compound 227, N-(4-(3-(3,5-difluorobenzyl)-3,8-diazabicyclo[3.2.1]octane-8-carbonyl)phenyl)quinoline-8-sulfonamide] |
| 100 to 500 | O=C(c1ccc(NS(=O)(=O)c2cccc3cccnc23)cc1)N1C2CCC1CN(CC1CC1)C2 [Compound 228, N-(4-(3-(cyclopropylmethyl)-3,8-diazabicyclo[3.2.1]octane-8-carbonyl)phenyl)quinoline-8-sulfonamide] |

Continued, compound first:

| SMILES | AC50 [nM] |
| --- | --- |
| CC1CN(CC2CCCCC2)CC(C)N1C(=O)c1ccc(NS(=O)(=O)c2cccc3cccnc23)cc1 (stereo not drawn) [Compound 198, N-(4-(4-(cyclohexylmethyl)-2,6-dimethylpiperazine-1-carbonyl)phenyl)quinoline-8-sulfonamide] | 100 to 500 |
| C[C@H]1CN(C[C@@H]2CCOC2)CCN1C(=O)c1ccc(NS(=O)(=O)c2cccc3cccnc23)cc1 [Compound 209] | 100 to 500 |
| C[C@H]1CN(C[C@H]2CCOC2)CCN1C(=O)c1ccc(NS(=O)(=O)c2cccc3cccnc23)cc1 [Compound 210] | 100 to 500 |
| C[C@@H]1CN(C[C@H]2CCCO2)CCN1C(=O)c1ccc(NS(=O)(=O)c2cccc3cccnc23)cc1 [Compound 212, N-(4-((R)-2-methyl-4-(((R)-tetrahydrofuran-2-yl)methyl)piperazine-1-carbonyl)phenyl)quinoline-8-sulfonamide] | < 100 |

Same assay, conditions: Table 5

| AC50 [nM] | SMILES |
| --- | --- |
| 100 to 500 | O=C(c1ccc(NS(=O)(=O)c2cccc3cccnc23)c(OC(F)(F)F)c1)N1CCN(Cc2cncc(F)c2)CC1 [Compound 300] |
| 100 to 500 | O=C(c1ccc(NS(=O)(=O)c2cccc3cccnc23)c(OC(F)(F)F)c1)N1CCN(CC2CC2)CC1 [Compound 301, N-(4-(4-(cyclopropylmethyl)piperazine-1-carbonyl)-2-(trifluoromethoxy)phenyl)quinoline-8-sulfonamide] |
| 500 to 1000 | O=C(c1ccc(NS(=O)(=O)c2cccc3cccnc23)c(OC(F)(F)F)c1)N1CCN(CC2CCOC2)CC1 (stereo not drawn) [Compound 302, N-(4-(4-((tetrahydrofuran-3-yl)methyl)piperazine-1-carbonyl)-2-(trifluoromethoxy)phenyl)quinoline-8-sulfonamide] |
| 100 to 500 | O=C(c1ccc(NS(=O)(=O)c2cccc3cccnc23)c(OC(F)(F)F)c1)N1CCN(CCc2ccccc2)CC1 [Compound 303, N-(4-(4-phenethylpiperazine-1-carbonyl)-2-(trifluoromethoxy)phenyl)quinoline-8-sulfonamide] |
| 100 to 500 | O=C(c1ccc(NS(=O)(=O)c2cccc3cccnc23)c(OC(F)(F)F)c1)N1CCN(Cc2ccncc2F)CC1 [Compound 304, N-(4-(4-((3-fluoropyridin-4-yl)methyl)piperazine-1-carbonyl)-2-(trifluoromethoxy)phenyl)quinoline-8-sulfonamide] |
| 100 to 500 | COc1ccncc1CN1CCN(C(=O)c2ccc(NS(=O)(=O)c3cccc4cccnc34)c(OC(F)(F)F)c2)CC1 [Compound 305, N-(4-(4-((4-methoxypyridin-3-yl)methyl)piperazine-1-carbonyl)-2-(trifluoromethoxy)phenyl)quinoline-8-sulfonamide] |
| 500 to 1000 | O=C(c1ccc(NS(=O)(=O)c2cccc3cccnc23)c(OC(F)(F)F)c1)N1CCN(Cc2cccc(Cl)c2Cl)CC1 [Compound 306, N-(4-(4-(2,3-dichlorobenzyl)piperazine-1-carbonyl)-2-(trifluoromethoxy)phenyl)quinoline-8-sulfonamide] |
| 100 to 500 | O=C(c1ccc(NS(=O)(=O)c2cccc3cccnc23)c(OC(F)(F)F)c1)N1CCN(Cc2ccncc2Cl)CC1 [Compound 307, N-(4-(4-((3-chloropyridin-4-yl)methyl)piperazine-1-carbonyl)-2-(trifluoromethoxy)phenyl)quinoline-8-sulfonamide] |
| 500 to 1000 | COc1cccc(F)c1CN1CCN(C(=O)c2ccc(NS(=O)(=O)c3cccc4cccnc34)c(OC(F)(F)F)c2)CC1 [Compound 308, N-(4-(4-(2-fluoro-6-methoxybenzyl)piperazine-1-carbonyl)-2-(trifluoromethoxy)phenyl)quinoline-8-sulfonamide] |
| 1000 to 20000 | O=C(c1ccc(NS(=O)(=O)c2cccc3cccnc23)c(OC(F)(F)F)c1)N1CCN(Cc2ncccc2C(F)(F)F)CC1 [Compound 309, N-(2-(trifluoromethoxy)-4-(4-((3-(trifluoromethyl)pyridin-2-yl)methyl)piperazine-1-carbonyl)phenyl)quinoline-8-sulfonamide] |
